# Test results as given in patent publication US4920103A, “Modifications of mycinose and 3-O-demethylmycinose in tylosin-type macrolides” (Eli Lilly and Company, priority 1986, dated 1990).
# Where “and” joins values, the source holds several entries; their conditions need not be identical. Equal values may be shown once. Read-outs that look alike come from different tables or passages of the source.
# Key:
# [1] = tested on: Staphylococcus aureus X1.1; assay: MIC, standard agar-dilution assay, S. aureus X1.1; assay type: cell-based
# Method: (§1) The MIC's in Table II were determined by standard agar-dilution assays. The MIC's in Table III were obtained using conventional broth-dilution microtiter tests.
# [2] = tested on: Staphylococcus aureus V41; assay: MIC, standard agar-dilution assay, S. aureus V41; assay type: cell-based
# Method: as §1
# [3] = tested on: Staphylococcus aureus X400; assay: MIC, standard agar-dilution assay, S. aureus X400; assay type: cell-based
# Method: as §1
# [4] = tested on: Staphylococcus aureus S13E; assay: MIC, standard agar-dilution assay, S. aureus S13E; assay type: cell-based
# Method: as §1
# [5] = tested on: Staphylococcus epidermidis EPI1; assay: MIC, standard agar-dilution assay, S. epidermidis EPI1; assay type: cell-based
# Method: as §1
# [6] = tested on: Staphylococcus epidermidis 222; assay: MIC, standard agar-dilution assay, S. epidermidis 222; assay type: cell-based
# Method: as §1
# [7] = tested on: Streptococcus pyogenes C203; assay: MIC, standard agar-dilution assay, S. pyogenes C203; assay type: cell-based
# Method: as §1
# [8] = tested on: Streptococcus pneumoniae Park I; assay: MIC, standard agar-dilution assay, S. pneumoniae Park I; assay type: cell-based
# Method: as §1
# [9] = tested on: Streptococcus Group D X66; assay: MIC, standard agar-dilution assay, Streptococcus Group D X66; assay type: cell-based
# Method: as §1
# [10] = tested on: Streptococcus Group D 2041; assay: MIC, standard agar-dilution assay, Streptococcus Group D 2041; assay type: cell-based
# Method: as §1
# [11] = tested on: Haemophilus influenzae C.L.; assay: MIC, standard agar-dilution assay, H. influenzae C.L.; assay type: cell-based
# Method: as §1
# [12] = tested on: Haemophilus influenzae 76; assay: MIC, standard agar-dilution assay, H. influenzae 76; assay type: cell-based
# Method: as §1
# Escherichia coli EC14 = assay: MIC, standard agar-dilution assay, E. coli EC14; assay type: cell-based
# Method: as §1
# [13] = tested on: Klebsiella pneumoniae X68; assay: MIC, standard agar-dilution assay, K. pneumoniae X68; assay type: cell-based
# Method: as §1
# [14] = tested on: Pseudomonas aeruginosa X239; assay: MIC, standard agar-dilution assay, P. aeruginosa X239; assay type: cell-based
# Method: as §1
# Staphylococcus aureus = assay: MIC, broth-dilution microtiter test, S. aureus; assay type: cell-based
# Method: as §1
# Streptococcus sp. 19F = assay: MIC, broth-dilution microtiter test, Streptococcus sp. 19F; assay type: cell-based
# Method: as §1
# [15] = tested on: Pasteurella multocida 17E; assay: MIC, broth-dilution microtiter test, P. multocida 17E; assay type: cell-based
# Method: as §1
# [16] = tested on: Pasteurella multocida 60A; assay: MIC, broth-dilution microtiter test, P. multocida 60A; assay type: cell-based
# Method: as §1
# [17] = tested on: Pasteurella multocida 40G; assay: MIC, broth-dilution microtiter test, P. multocida 40G; assay type: cell-based
# Method: as §1
# [18] = tested on: Pasteurella multocida 22A; assay: MIC, broth-dilution microtiter test, P. multocida 22A; assay type: cell-based
# Method: as §1
# [19] = tested on: Pasteurella multocida 68C; assay: MIC, broth-dilution microtiter test, P. multocida 68C; assay type: cell-based
# Method: as §1
# [20] = tested on: Pasteurella hemolytica 23C; assay: MIC, broth-dilution microtiter test, P. hemolytica 23C; assay type: cell-based
# Method: as §1
# [21] = tested on: Pasteurella hemolytica 41D; assay: MIC, broth-dilution microtiter test, P. hemolytica 41D; assay type: cell-based
# Method: as §1
# [22] = tested on: Pasteurella hemolytica 22C; assay: MIC, broth-dilution microtiter test, P. hemolytica 22C; assay type: cell-based
# Method: as §1
# [23] = tested on: Bordetella bronchiseptica; assay: MIC, broth-dilution microtiter test, B. bronchiseptica; assay type: cell-based
# Method: as §1
# [24] = tested on: Mycoplasma gallisepticum 29C; assay: MIC, broth-dilution microtiter test, M. gallisepticum 29C; assay type: cell-based; settings: Mycoplasmoides gallisepticum
# Method: as §1
# [25] = tested on: Mycoplasma gallisepticum 15E; assay: MIC, broth-dilution microtiter test, M. gallisepticum 15E; assay type: cell-based; settings: Mycoplasmoides gallisepticum, broth-dilution microtiter, read-out: MIC
# Method: as §1
# [26] = tested on: Mycoplasma gallisepticum 36H; assay: MIC, broth-dilution microtiter test, M. gallisepticum 36H; assay type: cell-based; settings: Mycoplasmoides gallisepticum
# Method: as §1
# [27] = tested on: Mycoplasma hyopneumoniae S5972; assay: MIC, broth-dilution microtiter test, M. hyopneumoniae S5972; assay type: cell-based; settings: broth-dilution microtiter
# Method: as §1
# [28] = tested on: Streptococcus pyogenes C203; assay: Protection of mice experimentally infected with Streptococcus pyogenes C203; assay type: in vivo; settings: doses given 1 and 4 hours postinfection
# Method: The formula 1 compounds have shown in vivo antimicrobial activity against experimentally-induced infections in laboratory animals. When two doses of test compound were administered to mice experimentally infected with Streptococcus pyogenes C203, the activity observed was measured as an ED50 value [effective dose in mg/kg to protect 50% of the test animals: see Warren Wick, et al., J. Bacteriol. 81, 233-235 (1961)].
# ^a mg/kg × 2; doses given 1 and 4 hours postinfection
# Mycoplasma synoviae 40A = assay: MIC, broth-dilution microtiter test, M. synoviae 40A; assay type: cell-based
# Method: as §1
# Mycoplasma hyorhinis 29E = assay: MIC, broth-dilution microtiter test, M. hyorhinis 29E; assay type: cell-based; settings: broth-dilution microtiter
# Method: as §1
# [29] = broth-dilution microtiter, avian isolate, read-out: MIC
# [30] = broth-dilution microtiter, read-out: MIC
# [31] = Mesomycoplasma hyopneumoniae, S5972, read-out: MIC
# [32] = Streptococcus pyogenes, C203, oral, read-out: ED50
# [33] = Streptococcus pyogenes, C203, sc, subcutaneous, read-out: ED50
# [34] = Streptococcus, SP.19F, broth-dilution microtiter, read-out: MIC
Structure (SMILES),MIC [1] [µg/mL],"MIC ([2]; Staphylococcus aureus, V41) [µg/mL]",MIC [3] [µg/mL],MIC [4] [µg/mL],MIC [5] [µg/mL],MIC [6] [µg/mL],"MIC ([7]; Streptococcus pyogenes, C203) [µg/mL]",MIC ([8]; Streptococcus pneumoniae) [µg/mL],MIC [9] [µg/mL],MIC ([10]; GROUPD2041) [µg/mL],"MIC (Escherichia coli EC14; agar-dilution, read-out: MIC) [µg/mL]","MIC ([13]; agar-dilution, read-out: MIC) [µg/mL]","MIC ([14]; agar-dilution, read-out: MIC) [µg/mL]",MIC (Staphylococcus aureus) [µg/mL],"MIC ([15]; Pasteurella multocida, 17E) [µg/mL]","MIC [27, 31] [µg/mL]","ED50 [28, 32] [mg/kg]","ED50 [28, 33] [mg/kg]",MIC [11] [µg/mL],MIC [12] [µg/mL],also measured
"CCC1OC(=O)CC(O)C(C)C(OC2OC(C)C(O)C(N(C)C)C2O)C(CCOc2ccccc2)CC(C)C(=O)C=CC(C)=CC1COC1OC(C)C(=NO)C(OC)C1OC (stereo not shown) [Compound 4, 4""-O-Hydroxyimino-20-DH-20-O-phenyl-desmycosin]",0.5,1,1,1,1,0.5,2,2,2,4,> 128,> 128,> 128,1.56,50,> 50,39.6,> 10,–,–,"MIC ([11]; agar-dilution, ampicillin-sensitive strain, read-out: MIC): > 128 µg/mL; MIC ([12]; agar-dilution, ampicillin-resistant strain, read-out: MIC): > 128 µg/mL; MIC (Streptococcus sp. 19F; Streptococcus, SP.19F): 0.78 µg/mL; MIC [16, 29]: > 50 µg/mL; MIC [17]: 50 µg/mL; MIC [18, 30]: > 50 µg/mL; MIC [19]: 50 µg/mL; MIC [20, 30]: > 50 µg/mL; MIC [21, 30]: > 50 µg/mL; MIC [22, 30]: > 50 µg/mL; MIC [23, 30]: > 50 µg/mL; MIC [24]: 1.56 µg/mL; MIC [25]: 25 µg/mL; MIC [26]: 50 µg/mL"
"CCC1OC(=O)CC(O)C(C)C(OC2OC(C)C(OC(C)=O)C(N(C)C)C2OC(C)=O)C(CCOc2ccccc2)CC(C)C(=O)C=CC(C)=CC1COC1OC(C)CC(OC)C1OC (stereo not shown) [Compound 10, 2',4'-Di-O-acetyl-4""-deoxy-20-DH-20-O-phenyl-desmycosin]",0.25,0.5,0.5,0.5,0.25,0.25,0.5,0.5,2,4,–,–,–,0.78,50,6.25,–,–,64,64,"MIC (Escherichia coli EC14): > 128 µg/mL; MIC [13]: > 128 µg/mL; MIC [14]: > 128 µg/mL; MIC (Streptococcus sp. 19F; [34]): 6.25 µg/mL; MIC [16]: > 50 µg/mL; MIC [17]: > 50 µg/mL; MIC [18]: > 50 µg/mL; MIC [19]: 50 µg/mL; MIC [20]: 50 µg/mL; MIC [21]: 50 µg/mL; MIC [22]: > 50 µg/mL; MIC [23]: > 50 µg/mL; MIC [24, 30]: < 0.048 µg/mL; MIC [26, 30]: 25 µg/mL; MIC (Mycoplasma synoviae 40A; Mycoplasmopsis synoviae, 40A): 3.12 µg/mL; MIC (Mycoplasma hyorhinis 29E; Mycoplasma, 29E, read-out: MIC): 25 µg/mL"
"CCC1OC(=O)CC(O)C(C)C(OC2OC(C)C(O)C(N(C)C)C2O)C(CCOc2ccccc2)CC(C)C(=O)C=CC(C)=CC1COC1OC(C)C(OC)C(OC)C1OC (stereo not shown) [Compound 13, 4""-O-Methyl-20-DH-20-O-phenyl-desmycosin]",–,–,–,–,–,–,–,–,–,–,–,–,–,–,–,–,–,–,–,–,"MIC ([2]; agar-dilution, penicillin-resistant strain): 2 µg/mL; MIC ([7]; agar-dilution): 4 µg/mL; MIC ([8]; agar-dilution): 4 µg/mL; MIC ([9]; agar-dilution): 16 µg/mL; MIC ([10]; agar-dilution): 16 µg/mL; MIC (Streptococcus sp. 19F; broth-dilution microtiter): 6.25 µg/mL; MIC ([15]; broth-dilution microtiter, bovine isolate): -- (not active at 50 mcg/mL); MIC (Mycoplasma synoviae 40A; broth-dilution microtiter): 6.25 µg/mL; MIC (Mycoplasma hyorhinis 29E): 25 µg/mL; MIC [27]: > 25 µg/mL; ED50 ([28]; oral): 18.8 mg/kg × 2 and 22.4 mg/kg × 2; ED50 ([28]; subcutaneous): > 10 mg/kg × 2"
"CCC1OC(=O)CC(O)C(C)C(OC2OC(C)C(O)C(N(C)C)C2O)C(CCOc2ccccc2)CC(C)C(=O)C=CC(C)=CC1COC1OC(C)C(N)C(OC)C1OC (stereo not shown) [Compound 21, 4""-Amino-4""-deoxy-20-DH-20-O-phenyl-desmycosin]",0.25,0.5,0.25,0.25,0.5,0.25,0.5,–,4,–,> 128,> 128,> 128,0.39,–,50,57.4,> 10,32,16,"MIC ([8]; Streptococcus pneumoniae, agar-dilution, read-out: MIC): 1 µg/mL; MIC ([10]; GROUPD2041, agar-dilution, read-out: MIC): 8 µg/mL; MIC (Streptococcus sp. 19F; [34]): 3.12 µg/mL; MIC ([15]; Pasteurella multocida, 17E, broth-dilution microtiter, bovine isolate, read-out: MIC): 25 µg/mL; MIC [16, 29]: 12.5 µg/mL; MIC [17, 30]: 6.25 µg/mL; MIC [18, 30]: 12.5 µg/mL; MIC [19, 30]: 12.5 µg/mL; MIC [20, 30]: 25 µg/mL; MIC [21, 30]: 12.5 µg/mL; MIC [22, 30]: 25 µg/mL; MIC [23, 30]: > 50 µg/mL; MIC [24, 30]: 1.56 µg/mL; MIC [25]: > 50 µg/mL; MIC [26, 30]: > 50 µg/mL"
"CCC1OC(=O)CC(O)C(C)C(OC2OC(C)C(O)C(N(C)C)C2O)C(CCOc2ccccc2)CC(C)C(=O)C=CC(C)=CC1COC1OC(C)CC(=O)C1OC (stereo not shown) [Compound 52, 4""-Deoxy-3""-oxo-20-DH-20-O-phenyl-lactenocin]",0.5,0.5,0.5,0.5,0.5,0.25,1,2,2,2,> 128,> 128,> 128,–,–,–,79.4,10,64,64,–
